{"source": "patent US20230312471A1", "about": "(priority 2020, published 2023)", "experiment_in_all_cases": "biochemical", "key": {"3CL^pro": {"molecular_target": "3CL^pro (Severe acute respiratory syndrome coronavirus 2, UniProt P0DTD1)", "assay_type": "binding, SARS-CoV-2"}, "PL^pro [1]": {"molecular_target": "T1, PL^pro (Severe acute respiratory syndrome coronavirus 2, UniProt P0DTD1)", "assay_type": "binding, SARS-CoV-2"}, "PL^pro [2]": {"molecular_target": "T1, PL^pro", "assay_type": "biochemical, SARS-CoV-2"}, "[3]": {"settings": "read-out: IC50, inhibition of labelling of 3CL^pro by compound of formula (13)"}}, "note": "Like-named read-outs stand apart in the source and are kept apart here."}
{"compound": "O=C(/C=C/c1ccc(O)c2oc(-c3ccc(O)c(O)c3)cc12)O[C@H](Cc1ccc(O)c(O)c1)C(=O)O", "note": "[salvianolic acid C]", "values": [{"measurement": "IC50", "setting": "3CL^pro; [3]", "result": 91, "unit": "µM"}]}
{"compound": "O=C(/C=C/c1ccc(O)c(O)c1)O[C@H](Cc1ccc(O)c(O)c1)C(=O)O", "note": "[rosmarinic acid]", "values": [{"measurement": "IC50", "setting": "3CL^pro", "result": 10, "unit": "µM"}]}
{"compound": "S=C=NCCc1ccccc1", "note": "[Compound X05, Phenethyl isothiocyanate]", "values": [{"measurement": "IC50", "setting": "PL^pro [1]", "result": 81, "unit": "µM"}, {"measurement": "Inhibition of PL^pro labelling (in words)", "setting": "PL^pro [1]", "result": "incomplete inhibition"}, {"measurement": "IC50", "setting": "3CL^pro", "result": 43, "unit": "µM"}, {"measurement": "Inhibition of 3CL^pro labelling (in words)", "setting": "3CL^pro", "result": "incomplete inhibition"}, {"measurement": "IC50", "setting": "PL^pro [2]", "result": 44, "unit": "µM"}, {"measurement": "Inhibition of enzyme activity of PL^pro (in words)", "setting": "PL^pro [2]", "result": "inhibited enzyme activity"}]}
{"compound": "O=C(/C=C/c1ccc(O)c2c1[C@H](C(=O)O)[C@@H](c1ccc(O)c(O)c1)O2)O[C@H](Cc1ccc(O)c(O)c1)C(=O)O", "note": "[lithospermic acid]", "values": [{"measurement": "IC50", "setting": "3CL^pro", "result": 32, "unit": "µM"}]}
{"compound": "COc1cc(/C=C/C(=O)CC(=O)/C=C/c2ccc(O)c(OC)c2)ccc1O", "note": "[Compound M03, curcumin]", "values": [{"measurement": "Inhibition of PL^pro labelling (in words)", "setting": "PL^pro [1]", "result": "almost completely inhibited"}, {"measurement": "Inhibition of enzyme activity of PL^pro (in words)", "setting": "PL^pro [2]", "result": "inhibited enzyme activity"}]}
{"compound": "O=C(/C=C/c1ccc(O)c(O)c1/C=C/c1ccc(O)c(O)c1)O[C@H](Cc1ccc(O)c(O)c1)C(=O)O", "note": "[salvianolic acid A]", "values": [{"measurement": "IC50", "setting": "3CL^pro; [3]", "result": 4.8, "unit": "µM"}]}
{"compound": "O=C(/C=C/c1ccc(O)c2c1[C@H](C(=O)O[C@H](Cc1ccc(O)c(O)c1)C(=O)O)[C@@H](c1ccc(O)c(O)c1)O2)O[C@H](Cc1ccc(O)c(O)c1)C(=O)O", "note": "[Compound M26, salvianolic acid B]", "values": [{"measurement": "IC50", "setting": "3CL^pro; [3]", "result": 12, "unit": "µM"}]}
